{"source": "patent US9592211B2", "about": "“Compositions for improvement of brain function” (GRESPO AB, priority 2012, dated 2017)", "key": {"Mongolian gerbils": {"test_system": "Mongolian gerbils", "assay": "T-maze spontaneous alternation, cognitive function/memory, Example 2", "format": "in vivo", "conditions": "old gerbils, feeding in chow, tested once (FIG. 2)", "description": "During the course of the treatment, the animals were subjected to T-maze test measuring cognitive function and/or memory as specified under Materials and Methods.\nFor long-lasting feeding (during 6 month) 75 old male Mongolian gerbils, randomly selected, were used. Those selected were approximately 1.5 years of age at start of the experiment with the mean body weight of 88.0±6 g and 2 years of age at experiment finish.\nSubjects were first placed in the start arm of the T Maze. Upon leaving the start arm, subjects chose between entering either the left or the right goal arm. […] The percentage of alternation (number of turns in each goal arm) and total trial duration were recorded."}, "[1]": {"test_system": "nestin-positive neurons in hippocampal CA1 area", "assay": "Induction of hippocampal neurogenesis (nestin immunohistochemistry), Example 1", "format": "in vivo, Mongolian gerbils", "conditions": "old gerbils, 6 month feeding in chow, compared to age matched controls (FIG. 1)", "experimental": "After the course of treatment as specified under Materials and Methods, the animals were sacrificed and the brains were analysed histologically to quantitate hippocampal neurogenesis.\nNestin is a marker for immature neurons. Nestin positive cells were found in the hippocampal layer of the pyramidal neurons. […] In some cells long processes that seem to be dendrites extended into deeper layers of the hippocampus, and these processes were nestin positive as well. In all of the CA fields of the hippocampus (CA1-CA3) these cells were structurally similar to pyramidal cells. The structural similarities between nestin positive cells and neurons allow regarding this type of cells as newly generated neurons.\nIn Example 1. the animals were fed Labofeed B standard chow (from Labofeed company; Andrzej Morawski Feed Production Plant, Kcynia near. Bydgoszcz, Poland) supplemented with test compounds as specified in table 1.\nThe lipase, protease and amylase were obtained as capsules containing 30,000 USP units/capsule of lipase, 20,000 USP units/capsule of protease, and 3,000 USP units/capsule of amylase) prepared as shown in Table 2. […]\nSamplings for immunohistochemistry (one hemisphere of each animal) were postfixed overnight in the same fixative at +4° C. […] Then slices were washed out, placed on histological slides and mounted with Fluorescence Mounting Media (Dako, Denmark). […]"}, "[2]": {"test_system": "synaptic terminals in hippocampal CA1 zone", "assay": "Synaptic morphology alterations (electron microscopy), Example 4", "format": "in vivo, Mongolian gerbils", "excerpt": "In the middle portion of the CA1 stratum radiatum analyzed in the study, the great majority of synaptic inputs are excitatory and they preferentially terminate on the […], Taking into consideration these aspects, we could focus our analyses on the pool of excitatory CA1 spine synapses.\nAfter perfusion the brains were isolated and separated on two hemispheres.\nThe hippocampus from another hemisphere of each animal was isolated and cut in 400-μm-thick transverse slices by a chopper (McIlwain tissue chopper, Great Britain). […] Tissue slices were then dehydrated in an ascending series of ethanol followed by dry acetone and embedded in EPON resin according to official protocol. The sections were produced by ultramicrotome LKB-8800. Toluidine blue-stained semi-thin (1 μm) sections of hippocampus were used to localize hippocampal CA1 area. For electron microscopy, ultra-thin sections (70 nm) from the middle portion of CA1 stratum pyramidale and stratum radiatum were stained with uranyl acetate and lead citrate.\nThe images were taken with JEM-100CX (Jeol, Japan) transmission electron microscope at magnification of ×10 000.\nPerforated synapse was defined as a synapse with discontinuous PSD. The synapses with more than one spine contacting the same presynaptic terminal were classified as multiple spine boutons (MSB).\nFor the analysis of SV's distribution, x- and y-coordinates of SV profile centers and points tracing the active zone of a synapse were marked with UTHSCSA ImageTool software (version 3, University of Texas, San Antonio, Tex.; ftp://maxrad6.uthscsa.edu) on digitized micrographs, using the point tool.\nAZD and NND quantities were pooled together per group. […]\nEstimations of synapse density were carried out on single photos by counting all asymmetric spine synapses (determined by the presence of a spine head with prominent PSD and docked synaptic vesicles (SV) in the active zone of a presynaptic terminal) on the micrograph surface limited by the counting frame (36 mkm^2 test area) followed by calculation of the number of synapses per surface unit area."}}, "note": "Entries after “also recorded” stand apart in the source; their conditions may differ.", "data": [{"compound": "O=C(O)CCC(=O)C(=O)O", "note": "[AKG, alpha-ketoglutaric acid]", "values": [{"measurement": "cognition (percentage of spontaneous alterations in T-maze test)", "setting": "Mongolian gerbils", "value": "improved cognition"}, {"measurement": "hippocampal neurogenesis (number of nestin-positive neurons per 1 mm of pyramidal layer length in hippocampal CA1 area)", "setting": "[1]", "value": "increased hippocampal neurogenesis; also recorded: increase neurogenesis"}, {"measurement": "number of SVs (synaptic vesicles) per presynaptic terminal", "setting": "[2]; hippocampal CA1, compared to control old animals (FIG. 6A)", "value": "increased"}, {"measurement": "number of synaptic terminals (synaptic contacts) per unit area (100 μm^2), increased to", "setting": "[2]; hippocampal CA1, old gerbils after long time treatment, old control three times lower than young (FIG. 4)", "value": 55, "unit": "%"}, {"measurement": "distance from a synaptic vesicle to the active zone (AZD)", "setting": "[2]; hippocampal synapses, old gerbils (FIG. 7)", "value": "increase of a distance from a vesicle to the active zone"}]}]}
